Organism: Rattus norvegicus
Test: DrugMatrix - Regimen: Daily Repeat
Type: toxicity, organism-based, Sprague-Dawley
Set-up: regimen Daily Repeat, gender Male, age 6-8 weeks
Conditions: in vivo, po, route oral GAVAGE, vehicle .5 % CMC; for ABSOLUTE BASOPHIL / ABSOLUTE EOSINOPHIL / ABSOLUTE LYMPHOCYTE / ABSOLUTE MONOCYTE / ABSOLUTE SEGMENTED NEUTROPHIL / BASOPHIL / EOSINOPHIL / ERYTHROCYTE COUNT / HEMATOCRIT / HEMOGLOBIN / LEUKOCYTE COUNT / LYMPHOCYTE / MEAN CORPUSCULAR HEMOGLOBIN / MEAN CORPUSCULAR HEMOGLOBIN CONCENTRATION / MEAN CORPUSCULAR VOLUME / MONOCYTE / NEUTROPHIL / NUCLEATED RED BLOOD CELLS / PLATELET COUNT: tissue Blood; for ALANINE AMINOTRANSFERASE / ALBUMIN / ALKALINE PHOSPHATASE / ASPARTATE AMINOTRANSFERASE / BLOOD UREA NITROGEN / CARBON DIOXIDE / CHLORIDE / CHOLESTEROL / CREATINE PHOSPHOKINASE / CREATININE / GLUCOSE / LACTATE DEHYDROGENASE / LIPASE / PHOSPHORUS / POTASSIUM / SODIUM / TOTAL BILIRUBIN / TOTAL PROTEIN / URIC ACID: tissue Plasma
[1] = 17 mg/kg, 120 h, dose level Low, time 5 day
[2] = 85 mg/kg, 72 h, dose level High, time 3 day
[3] = 85 mg/kg, 120 h, dose level High, time 5 day

CN1CCN(CCCN2c3ccccc3Sc3ccc(Cl)cc32)CC1 [PROCHLORPERAZINE]
ABSOLUTE BASOPHIL [1]: 0 CELLS/uL | ABSOLUTE EOSINOPHIL [1]: 40 CELLS/uL | ABSOLUTE LYMPHOCYTE [1]: 12867.33 CELLS/uL | ABSOLUTE MONOCYTE [1]: 40 CELLS/uL | ABSOLUTE SEGMENTED NEUTROPHIL [1]: 986 CELLS/uL | BASOPHIL [1]: 0% | EOSINOPHIL [1]: 0.33% | ERYTHROCYTE COUNT [1]: 5.56 x10E6/uL | HEMATOCRIT [1]: 36.13% | HEMOGLOBIN [1]: 14.37 G/DL | LEUKOCYTE COUNT [1]: 13.93 x10E3/uL | LYMPHOCYTE [1]: 92.33% | MEAN CORPUSCULAR HEMOGLOBIN [1]: 25.87 pg | MEAN CORPUSCULAR HEMOGLOBIN CONCENTRATION [1]: 39.77 G/DL | MEAN CORPUSCULAR VOLUME [1]: 65.13 fL | MONOCYTE [1]: 0.33% | NEUTROPHIL [1]: 7% | NUCLEATED RED BLOOD CELLS [1]: 0 /100WBC | PLATELET COUNT [1]: 1289.67 x10E3/uL | ALANINE AMINOTRANSFERASE [1]: 45.33 u/L | ALBUMIN [1]: 4.27 G/DL | ALKALINE PHOSPHATASE [1]: 464.33 u/L | ASPARTATE AMINOTRANSFERASE [1]: 85 u/L | BLOOD UREA NITROGEN [1]: 15.33 mg/dL | CARBON DIOXIDE [1]: 27.33 mmol/L | CHLORIDE [1]: 100.67 MEQ/L | CHOLESTEROL [1]: 75.67 mg/dL | CREATINE PHOSPHOKINASE [1]: 372 u/L | CREATININE [1]: 0.12 mg/dL | GLUCOSE [1]: 141.67 mg/dL | LACTATE DEHYDROGENASE [1]: 401 u/L | LIPASE [1]: 9 u/L | PHOSPHORUS [1]: 12.43 mg/dL | POTASSIUM [1]: 6.4 MEQ/L | SODIUM [1]: 143.33 MEQ/L | TOTAL BILIRUBIN [1]: 0.17 mg/dL | TOTAL PROTEIN [1]: 6.1 G/DL | URIC ACID [1]: 1.33 mg/dL | ABSOLUTE BASOPHIL [2]: 0 CELLS/uL | ABSOLUTE EOSINOPHIL [2]: 81.33 CELLS/uL | ABSOLUTE LYMPHOCYTE [2]: 10099 CELLS/uL | ABSOLUTE MONOCYTE [2]: 0 CELLS/uL | ABSOLUTE SEGMENTED NEUTROPHIL [2]: 453 CELLS/uL | BASOPHIL [2]: 0% | EOSINOPHIL [2]: 0.67% | ERYTHROCYTE COUNT [2]: 6.34 x10E6/uL | HEMATOCRIT [2]: 40.77% | HEMOGLOBIN [2]: 16.03 G/DL | LEUKOCYTE COUNT [2]: 10.63 x10E3/uL | LYMPHOCYTE [2]: 95.33% | MEAN CORPUSCULAR HEMOGLOBIN [2]: 25.3 pg | MEAN CORPUSCULAR HEMOGLOBIN CONCENTRATION [2]: 39.37 G/DL | MEAN CORPUSCULAR VOLUME [2]: 64.3 fL | MONOCYTE [2]: 0% | NEUTROPHIL [2]: 4% | NUCLEATED RED BLOOD CELLS [2]: 1 /100WBC | PLATELET COUNT [2]: 1132 x10E3/uL | ALANINE AMINOTRANSFERASE [2]: 31.33 u/L | ALBUMIN [2]: 4.87 G/DL | ALKALINE PHOSPHATASE [2]: 290 u/L | ASPARTATE AMINOTRANSFERASE [2]: 67.33 u/L | BLOOD UREA NITROGEN [2]: 24 mg/dL | CARBON DIOXIDE [2]: 22.67 mmol/L | CHLORIDE [2]: 108 MEQ/L | CHOLESTEROL [2]: 89 mg/dL | CREATINE PHOSPHOKINASE [2]: 161.33 u/L | CREATININE [2]: 0.2 mg/dL | GLUCOSE [2]: 145.67 mg/dL | LACTATE DEHYDROGENASE [2]: 143.33 u/L | LIPASE [2]: 8 u/L | PHOSPHORUS [2]: 11.93 mg/dL | POTASSIUM [2]: 6.09 MEQ/L | SODIUM [2]: 150.37 MEQ/L | TOTAL BILIRUBIN [2]: 0.2 mg/dL | TOTAL PROTEIN [2]: 7.03 G/DL | URIC ACID [2]: 2.53 mg/dL | ABSOLUTE BASOPHIL [3]: 0 CELLS/uL | ABSOLUTE EOSINOPHIL [3]: 0 CELLS/uL | ABSOLUTE LYMPHOCYTE [3]: 10951.33 CELLS/uL | ABSOLUTE MONOCYTE [3]: 241 CELLS/uL | ABSOLUTE SEGMENTED NEUTROPHIL [3]: 641 CELLS/uL | BASOPHIL [3]: 0% | EOSINOPHIL [3]: 0% | ERYTHROCYTE COUNT [3]: 6.41 x10E6/uL | HEMATOCRIT [3]: 38.7% | HEMOGLOBIN [3]: 15.23 G/DL | LEUKOCYTE COUNT [3]: 11.83 x10E3/uL | LYMPHOCYTE [3]: 92.67% | MEAN CORPUSCULAR HEMOGLOBIN [3]: 23.73 pg | MEAN CORPUSCULAR HEMOGLOBIN CONCENTRATION [3]: 39.33 G/DL | MEAN CORPUSCULAR VOLUME [3]: 60.37 fL | MONOCYTE [3]: 2% | NEUTROPHIL [3]: 5.33% | NUCLEATED RED BLOOD CELLS [3]: 0 /100WBC | PLATELET COUNT [3]: 1133 x10E3/uL | ALANINE AMINOTRANSFERASE [3]: 46.33 u/L | ALBUMIN [3]: 4.37 G/DL | ALKALINE PHOSPHATASE [3]: 354.33 u/L | ASPARTATE AMINOTRANSFERASE [3]: 99.67 u/L | BLOOD UREA NITROGEN [3]: 21.33 mg/dL | CARBON DIOXIDE [3]: 24.67 mmol/L | CHLORIDE [3]: 105.67 MEQ/L | CHOLESTEROL [3]: 84.67 mg/dL | CREATINE PHOSPHOKINASE [3]: 760.33 u/L | CREATININE [3]: 0.23 mg/dL | GLUCOSE [3]: 146 mg/dL | LACTATE DEHYDROGENASE [3]: 421 u/L | LIPASE [3]: 9 u/L | PHOSPHORUS [3]: 11.03 mg/dL | POTASSIUM [3]: 6.4 MEQ/L | SODIUM [3]: 147.97 MEQ/L | TOTAL BILIRUBIN [3]: 0.27 mg/dL | TOTAL PROTEIN [3]: 6.17 G/DL | URIC ACID [3]: 1.8 mg/dL
